Reference: patent US20260183392A1, “METHODS AND KITS FOR DNA EDITING AND TREATING, AMELIORATING AND/OR PREVENTING CANCER” (FC IP Holdings, LLC, priority 2022, published 2026)

Legend:
iPSC = experiment: Cell viability / cell health of engineered iPSC; assay type: cell-based
Source text: FIGS. 3A-3H: induced pluripotent stem cells (iPSC) engineering according to some embodiments. FIG. 3A: GFP knock-in efficiency (on Day 7) at RAB11A locus in iPSC using cssDNA or dsDNA as donor templates. FIG. 3B: Cell viability of cssDNA- and dsDNA-engineered iPSC as measured on Day 3. FIG. 3C: Does-dependent GFP reporter knock-in using GFP reporter cssDNA targeting RAB11A or B2M locus. FIG. 3D: GFP fluorescence and phase contrast imaging of representative engineered iPSC colony. FIG. 3E: Schematic diagram of cssDNA donor templates for multiplexed reporter gene knock-in at RAB11A and B2M loci. FIG. 3F: Dual knock-in of mCherry and GFP report genes at the same RAB11A locus. FIG. 3G: Dual knock-in of mCherry and GFP report genes at RAB11A locus and B2M locus, respectively. […] GFP knock-in efficiency was assessed on Day 7 post electroporation by flow cytometry. […]
The present study next evaluated small-molecule inhibitors that have been reported to enhance knock-in efficiency, including the DNA-dependent protein kinase (DNA-PK) inhibitor M-3814 and “Alt-R HDR enhancer 2” (HDRe.v2), which is described as a nonhomologous end joining (NHEJ) inhibitor (Kath et al., Mol Ther Methods Clin Dev. 2022 April 12:25:311-330; Shy et al., Nat Biotechnol. 2023 April; 41 (4): 521-531; and Tatiossian et al., Mol Ther. 2021 Mar. 3; 29 (3): 1057-1069). […]

[1] = system: TRAC locus in primary T cells; experiment: Anti-CD19xCD22 CAR knock-in at TRAC locus in primary T cells (Protein L, flow cytometry); assay type: cell-based, human; details: 2 μg of cssDNA plus 1 μM M-3814; Day 7
Source text: FIGS. 7A-7I: CAR-T cell engineering with cssDNA, in accordance with some embodiments. FIG. 7A: Schematic diagram of nonviral CAR-T cell engineering process. Pan T cells are isolated from peripheral blood and activated on day 0 with anti-CD3/anti-CD28 TransAct. Cells are electroporated using the Lonza nucleofector on day 2 with Cas9 RNPs+cssDNA HDR donor templates and then expanded for a total of 7-10 days. FIG. 7B: Representative day 7 flow cytometry graphs showing CAR knock-in for Mock (un-engineered) and cssDNA-engineered T cells with DMSO or 1 μM M-3814 treatments. FIG. 7C: Representative day 7 flow plots and quantifications of CAR knock-in for mock (un-engineered), cssDNA- or AAV6-engineered T cells. Cells were treated with 1 μM M-3814 for 1 day immediately after electroporation. FIG. 7D: Expansion ability of engineered CAR-T cells. FIG. 7E: In vitro killing of NALM6 acute lymphoblastic leukemia cell line with cssDNA-, AAV6-engineered CAR-T cells in comparison to unmodified T cells from same blood donors after 24 hours of co-culture. The in vitro killing measured by live cell imaging using IncuCyte® live cell imaging system. […] FIG. 7G: the data of FIG. 7F, expressed as a bar chart. […] I. FIG. 7I, Tumor burden shown as bioluminescent signal quantified per animal every week over a 21-day period. n=5 mice per group. […]

[2] = system: RAB11A locus and TRAC locus in human primary T cells; experiment: GFP reporter knock-in at RAB11A or TRAC locus in human primary T cells; assay type: cell-based; details: 1 μM for 24 hours vs DMSO; cssDNA donors; Day 7
Description: FIGS. 5A-5D: Innate immune response in primary T cells, in accordance with some embodiments. FIG. 5A: Schematic diagram of the GFP reporter cssDNA targeting RAB11A locus and TRAC locus (Upper). GFP reporter knock-in efficiency with cssDNA donor templates in human primary T cells. Immediately after electroporation, cells were treated with either DMSO or 1 μM M-3814 for 24 hours. The knock-in efficiency was examined on Day 7 post electroporation. FIG. 5B. Secreted IFN-γ and TNF-α cytokines levels in cultured primary T medium after electroporation with buffer, dsDNA, cssDNA or mRNA molecules. Conditioned media were collected for cytokine analysis using the Ella immunoassay platform with selected panels. FIGS. 5C-5D: Gene set enrichment analysis (GSEA) enrichment analysis of interferon gamma response genes on the differential expression genes (DEG) of from the dsDNA or cssDNA treated primary T cells. […]
Genetically engineered T cell immunotherapies have provided remarkable clinical success to treat B cell acute lymphoblastic leukemia and have the potential to provide therapeutic benefit for numerous other cancers, infectious diseases, and autoimmunity. […] Primary T cells were co-electroplated with respective RNPs, and knock-in efficiency was determined on Day 7 post electroporation by GFP^+ cell percentage using flow cytometry. […]

human B2M locus = experiment: Screen of crRNA for Cpf1 at human B2M locus (cleavage efficiency)

Compound	live cell counts (iPSC; at the chosen concentrations)	reduction in cell viability (iPSC; higher doses, day 4 post-electroporation)	knock-in efficiency (percentage of CAR+ cells) [1]	increase of knock-in efficiency [2]	cleavage efficiency (human B2M locus)
COc1ccc([C@@H](O)c2cc(-c3ncnc4cc(N5CCOCC5)ccc34)c(F)cc2Cl)nn1 [M-3814]	generally unaffected	roughly 38%	56.3%	60-150%	
Cpf1-crRNA: crRNA for Cpf1 at human B2M locus identified by screening (guide AGUGGGGGUGAAUUCAGUGU; chemistry not fully specified)					over 95%
